Experimental data published in patent US6159988A, “Arylcycloalkyl derivatives, their production and their use” (Hoeschst Aktiengesellschaft, priority 1992, dated 2000).
Counter-ions that a name gives are not always drawn.

Experiments:
[1] = test system: Cotton Pellet Granuloma in Rats; assay: Inhibition of carrageenin cotton pellet granuloma in rats; assay type: in vivo, rat (Wistar); conditions: p.o. × 5
Experimental: The implantation of carrageenin impregnated cotton pellets results in production of large, well-defined granuloma which are easily dissected. The potency of the compounds are assessed by measuring the reduction in granuloma tissue formation.
Cotton wool pellets weighing 40 mg were used for sterilization.
Pellets were dried overnight under a lamp. The pellets in the weight range of 42-44 mg were selected.
Rats (in groups of 6, male or female, Charles River, Wistar, weighing 140-150 g) were anaesthetized with ether. The back was shaved and cleaned; swabbed with alcohol and one centimeter incision was made in the lower midback. A small channel was made bilaterally using a blunt forceps and one cotton pellet placed in each channel. Air from the incision was removed and the wound was stitched. […] Three hours after the administration of the last dose on day 7, animals were sacrificed. The pellets were removed by cutting the skin along the dorsal midline and peeling the skin away from the bodywall in both lateral directions. The pellets were weighed and then placed in drying oven at 140° C. overnight. The dry weights were then recorded and the amount of granuloma was assessed by subtracting the original pellet weight from wet weights and dry weights. The data was evaluated using the difference of left and right weights (cf. Table 4).

IL-1 alpha = assay: Inhibition of LPS stimulated IL-1 alpha release from human mononuclear cells; assay type: cell-based; conditions: 18 hours, 37° C., read-out: Approx. IC50 (LPS stimulated IL-1 alpha)
Experimental: (§1) 10 ml of human blood were carefully drawn from the antecubital vein using a syringe containing 1 ml of a solution of 3.8% sodium citrate. After dilution with 10 ml PM 16 (Serva, Heidelberg, FRG) and underlayering with 15 ml Lymphoprep® (Molter GmbH), the sample was centrifuged at 400×g for 40 min at 20° C. The mononuclear cells forming a white ring between lymphoprep and plasma were carefully aspirated by a syringe, diluted 1:1 with PM 16 and centrifuged again at 400×g for 10 min. […] was washed with 10 ml RPMI 1640 (Gibco, Berlin, FRG), containing additionally 300 mg/l L-glutamine, 25 mmol/l […] HEPES, 100 μg/ml streptomycin and 100 μg/ml penicillin. Finally, using a Coulter counter IT, the cell suspension was adjusted to 5×10^6 cells/ml. The cells consist of approx. 90% lymphocytes and 10% monocytes.
10 μl DMSO/water (1:10, v/v), containing the test compound, was added to 480 μl of a suspension, containing 5×10^6 mononuclear cells. The synthesis of IL-1 was stimulated by the addition of 10 μl DSMO/water (1:10, v/v), containing 0,5 μg LPS (Salmonella abortus equi, Sigma). After incubation at 37° C. for 18 hours, the samples were cooled to 0° C. and centrifuged for 1 min. in a table centrifuge. […]

[2] = test system: microanaphylactic shock of guinea pigs; assay: Inhibition of micro-anaphylactic shock of guinea pigs (egg albumin aerosol); assay type: in vivo, guinea pig; conditions: 20 mg/kg^-1, i.p. + pretreatment with indomethacin, 10 mg/kg
Source text: Guinea pigs of either sex weighing between 300-350 g were sensitized with egg albumin absorbed over Al(OH)3 gel. After 21 days of sensitization, each animal was placed in an air tight perspex chamber and exposed to 0.5% egg albumin aerosol through EEL atomizer. EEL atomizer was operated by connecting it to pressurized air through a water trap and dial type sphygmomanometer at the constant air pressure of 180 mm Hg. The time of onset of asthma in seconds and recovery period in minutes was noted.
Each animal was exposed to egg albumin aerosol at an interval of 15 days to maintain the consistency of the reactivity of animals to the antigen. After 3 such control exposures, animals were subjected to drug treatment. On the day of the experiment one group of Guinea pigs consisting of 10 animals was kept as control exposing them only to 0.5% egg albumin aerosol. […] Fifteen mins. after the administration of the test compound the animals were exposed to 0.5% egg albumin aerosol.

[3] = test system: isolated guinea pig ileum precontracted with leukotrienes; assay: Relaxation of leukotriene induced contraction of isolated guinea pig ileum; assay type: cell-based; conditions: Cavia porcellus
Experimental: Guinea pigs of either sex weighing 300-350 g were sensitized with a suspension of aluminum hydroxide gel and egg albumin. After 21 days, each animal was exposed to 0.5% egg albumin aerosol in an air tight perspex chamber and only those animals which developed allergic bronchoconstriction were selected for further experiment.
The animals were tested for one week after antigenic exposure and then sacrificed by head blow and cutting carotid arteries. The lung was quickly removed and placed in aerated Tyrode solution kept at 37° C. The lung was cut into uniform strips and each strip was placed in an organ bath containing isolated guinea pig ileum connected to potentiometric recorder through isotonic transducer in the presence of Tyrode solution kept at 37° C. After a stabilizing period of 30 minutes, the reactivity of ileum to histamine was confirmed by challenging it with 100 ng-200 ng/ml of histamine. The perfusion fluid was then replaced by Tyrode solution containing Atropine (10^-7 M), Mepyramine maleate (10^-7 M) and methylsergide (10^-7 M). Three minutes later, lung strip was challenged by egg albumin (25 μg/ml) and release of leukotrienes was monitored in terms of slow contraction of ileum. The ileum was allowed to contract for 10-15 minutes when a plateau was achieved. The test compound (compound 4 of Table 1) was then added to observe the relaxation.
(§2) The specificity of leukotriene antagonism was determined by inducing contraction of guinea pig ileum with agonists like histamine, acetylcholine and KC1. Compounds having specific effect against lipoxygenase products induced contraction normally would not show any inhibition of histamine, acetylcholine and KC1 induced contraction.

[4] = test system: KC1 induced contraction of guinea pig ileum; assay: KCl induced contraction of guinea pig ileum (specificity); assay type: cell-based; conditions: up to 7.11×10^-5 M
Experimental: as §2

[5] = test system: histamine induced contraction of guinea pig ileum; assay: Histamine induced contraction of guinea pig ileum (specificity); assay type: cell-based; conditions: up to 7.11×10^-5 M
Experimental: as §2

[6] = test system: experimental allergic encephalomyelitis (EAE) in guinea pigs; assay: Experimental allergic encephalomyelitis (EAE) in guinea pigs; assay type: in vivo, guinea pig; conditions: 3 mg/kg orally once daily for 10 days
Source text: This method permits the evaluation of the potential of the test compound in preventing the development of an autoimmune disorder leading to demyelination in the guinea pigs which can be equated to multiple sclerosis disease in humans. EAE is a reproducible chronic inflammatory autoimmune disease of the central nervous system in which an animal is immunized with either a homologous or heterologous extract of the whole brain and spinal cord, which contains the basic myelin protein together with Freund's Complete Adjuvant (FCA). A pathological condition would set in during ten to twenty days following immunization, which is characterized by weight loss, abnormal gait, mild to severe ataxia, paraparesis and moribund state leading to death. The potential of the test compounds to prevent this autoimmune condition was evaluated by observing the severity of the disease and mortality in comparison with untreated and hydrocortisone (standard drug) treated animals.
Guinea pigs (200-300 g) were randomly distributed into groups of 10 each after receiving 0.075 ml of it brain and spinal cord extract in FCA intradermally on the back and 0.050 ml intrapedally in one hind paw. Compound 9 of Table 2 was administered orally at 3 mg/kg once daily for 10 days. The standard compound was administered 100 mg/kg p.o. once daily for 10 days. The weights of the animals were noted every day. Eight days after the induction of the disease, the animals were rated regularly for the severity of the disease and mortality was monitored.

IL-1 = IL-1 release inhibition (Table 2); assay type: cell-based, human; conditions: Homo sapiens; 5 μM; read-out: IL-1 Rel. Inhib.
Experimental: as §1
10 μl DMSO/water (1:10, v/v), containing the test compound, was added to 480 μl of a suspension, containing 5×10^6 mononuclear cells. The synthesis of IL-1 was stimulated by the addition of 10 μl DSMO/water (1:10, v/v), containing 0,5 μg LPS (Salmonella abortus equi, Sigma). After incubation at 37° C. for 18 hours, the samples were cooled to 0° C. and centrifuged for 1 min. in a table centrifuge. 25 μl aliquots of the supernatant were assayed for IL-1 alpha activity using a commercially available 125-J-IL-1-alpha radioimmunoassay Kit (Amersham/UK), and for IL-1 beta in a similar way using the specific test kit. Control experiments were performed as described without test compound, or with cycloheximide as a test compound.

[7] = Oral bioavailability in the dog; assay type: in vivo; conditions: 10 mg/kg oral (vs 1 mg/kg intravenous), plasma
Experimental: (§3) Since the test compound produced significant activity in the adjuvant arthritic rats and experimental allergic encephalomyelitic guinea pigs when administered orally, the extent of oral bioavailability of this compound was estimated in rats and dogs. Compound 9 of Table 2 was administered intravenously (1 mg/kg) to conscious rats and dogs and blood samples were collected at various time points after administration. Similarly, the test compound was also administered orally (10 mg/kg) to a different set of rats and dogs and blood samples were collected at various time points. The blood samples were extracted and were analyzed by HPLC to obtain the concentration of compound 9 in the plasma. The plasma levels obtained after intravenous and oral administration were plotted against time, areas under the curves were calculated and percent bioavailability were estimated.

[8] = test system: adjuvant arthritis in rats; assay: Adjuvant-induced arthritis in rats; assay type: in vivo, rat (female Wistar); conditions: 3, 10, and 30 mg/kg orally once a day, 12 days
[9] = Oral bioavailability in the rat; assay type: in vivo; conditions: 10 mg/kg oral (vs 1 mg/kg intravenous), plasma
Experimental: as §3

COc1cc(OC)c([C@@H]2CCCC[C@H]2O)c(O)c1C(=O)/C=C/c1ccc(Cl)cc1 (relative stereo) [Compound 4 of Table 1, trans-(±)-2-[4,6-Dimethoxy-2-hydroxy-3-(3-(4-chlorophenyl)prop-2-(E)-enoyl)]phenylcyclohexanol]
% Inhibition of granuloma, Dry wt. ([1]; 10 mg/kg): 35.6%
% Inhibition of granuloma, Wet wt. ([1]; 10 mg/kg): 21%
% Inhibition of granuloma, Dry wt. ([1]; 20 mg/kg): 89.0%
% Inhibition of granuloma, Wet wt. ([1]; 20 mg/kg): 54%
% Inhibition of granuloma, Dry wt. ([1]; 30 mg/kg): 82.8%
% Inhibition of granuloma, Wet wt. ([1]; 30 mg/kg): 64%
IC50 (IL-1 alpha): 200 to 300 nM
Recovery period ([2]; control group 37 + 3.4): 77.6 min
Onset Time ([2]; control group 75 + 8.7): 149 s
inhibition at 1.2 µM ([3]; Conc. 1.2 × 10^-6 M): 36.8%
inhibition at 1.68 µM ([3]; Conc. 1.68 × 10^-6 M): 50.5%
inhibition at 2.4 µM ([3]; Conc. 2.4 × 10^-6 M): 62.4%
inhibition at 7.2 µM ([3]; Conc. 7.2 × 10^-6 M): 68%
IC50 ([3]; relaxation of leukotriene precontracted ileum, read-out: App. IC50): 1680 nM
Effect on KC1 induced contraction [4]: No effect
Effect on histamine induced contraction [5]: No effect

COc1cc(OC)c([C@@H]2CCCC[C@H]2OC(=O)[C@H](C)N)c(O)c1C(=O)/C=C/c1cccc(Br)c1 [Compound 9 of Table 2, trans-(-)-2-[4,6-dimethoxy-2-hydroxy-3-(3-(3-bromophenyl)prop-2-(E)-enoyl)phenyl]cyclohexyl-2-(S)-amino propanoate hydrochloride]
reduction in the mortality rate [6]: 45%
clinical symptoms (clinical grading) ([6]; compared to untreated group): significantly reduced
inhibition at 5 µM (IL-1): 55%
bioavailability [7]: 73%
reduction in the uninjected paw volumes [8]: significant and dose dependent reduction
bioavailability [9]: 46%
